Marks after values point to notes of the source that are not given here.
Experiments:
broilers = test: Broiler trial, xylanase/COS dose response, 35 days, zootechnical performance; assay type: in vivo
Experimental: The researchers performed a study in growing poultry, in which xylanase and COS were combined in a dose response study in order to study the impact of combining xylanase and COS on poultry growth.
Materials and Methods: The effects of dietary supplementation of a combination of xylanase/COS were evaluated in a broiler trial over a duration of 35 days. A total of 1200 Ross broilers were used in this experiment, with five diets and 12 replicates per diet.

laying hens = test: Laying hen trial, two-by-two factorial xylanase / COS, 60 days; assay type: in vivo, HiSex laying hens
Experimental: The researchers combined xylanase and COS in a two-by-two factorial design study in order to investigate the impact of combining xylanase and COS on animal intestinal health, and specifically the microbiome. Materials and Methods: The effects of dietary supplementation of a combination of xylanase/COS (prototype or “[…]”) were evaluated in a laying hen trial over a duration of 60 days. A total of 40 HiSex laying hens were used in this experiment, with four diets and 10 replicates per diet. Dosages were determined based on extrapolation of the in vitro cell culture data. Laying hens were allocated into four different groups: (T1) Control; […] (T3) xylanase alone, using […] Industries, Inc.); (T4) and a combination of xylanase and COS. The diets were based on wheat ( 55%), soybean and sunflower meal.

[1] = Grower phase, 15-35 days of age
[2] = Starter phase, 0-14 days of age

beta 1-4, endo-xylanase enzyme [Xygest HT]
ADFI (broilers; Global trial, 0-35 days of age): 87.2 g/day
FCR (broilers; Global trial, 0-35 days of age): 1.51^ab
M-ADFI (mortality adjusted mean daily feed intake) (broilers; Global trial, 0-35 days of age): 86.8 g/day
M-ADG (mortality adjusted mean daily gain) (broilers; Global trial, 0-35 days of age): 57.5^a g/d
M-FCR (Mortality adjusted feed:gain) (broilers; Global trial, 0-35 days of age): 1.51^ab
ADFI (broilers; [1]): 123.7 g/day
ADG (broilers; [1]): 80.0^a g/d
FCR (broilers; [1]): 1.55^ab
M-ADFI (mortality adjusted mean daily feed intake) (broilers; [1]): 123.3 g/day
M-ADG (mortality adjusted mean daily gain) (broilers; [1]): 79.9^a g/d
M-FCR (Mortality adjusted feed:gain) (broilers; [1]): 1.54^ab
ADFI (broilers; [2]): 32.9 g/day
ADG (broilers; [2]): 24.5 g/day
FCR (broilers; [2]): 1.35
M-ADFI (mortality adjusted mean daily feed intake) (broilers; [2]): 32.8 g/day
M-ADG (mortality adjusted mean daily gain) (broilers; [2]): 24.4 g/day
M-FCR (Mortality adjusted feed:gain) (broilers; [2]): 1.34^ab
Body weight (broilers; broilers, 14 days of age): 386 g
Albumin Height (laying hens; End of Phase 1): 7.1 a mm
Egg Shell Thickness (laying hens; End of Phase 1): 0.397 a mm
Haugh Unit (HU) (laying hens; End of Phase 1): 84.3 a
Shell Breaking Strength (laying hens; End of Phase 1): 4.6 a kg · force
Yolk Color Score (DSM method) (laying hens; End of Phase 1): 5.3 a
Yolk Diameter (laying hens; End of Phase 1): 43.2 mm
Yolk Height (laying hens; End of Phase 1): 18.7 mm
Yolk Index (laying hens; End of Phase 1): 0.44
Albumin Height (laying hens; End of Phase 2): 7.9 a mm
Egg Shell Thickness (laying hens; End of Phase 2): 0.428 a mm
Haugh Unit (HU) (laying hens; End of Phase 2): 88.7 a
Shell Breaking Strength (laying hens; End of Phase 2): 4.7 ab kg · force
Yolk Color Score (DSM method) (laying hens; End of Phase 2): 6.7 a
Yolk Diameter (laying hens; End of Phase 2): 44.2 mm
Yolk Height (laying hens; End of Phase 2): 18.3 ab mm
Yolk Index (laying hens; End of Phase 2): 0.42 a
Egg mass, % Improvement compared to the control treatment (laying hens; laying hens, 60 days): 0.91%
Egg weight, % Improvement compared to the control treatment (laying hens; laying hens, 60 days): 0.58%
FCR, % Improvement compared to the control treatment (laying hens; laying hens, 60 days): −0.07%
laying percentage compared to the control group (in words) (laying hens; laying hens, 60 days): significant increase
nutrient digestibility (in words, FIG. 6-11) (laying hens; laying hens, 60 days): Even a better effect

From patent US20250120420A1, “FEED ADDITIVE FOR IMPROVING ANIMAL PERFORMANCE, DIGESTION AND INTESTINAL HEALTH AND RELATED METHODS” (priority 2023, published 2025)
